Results on two compounds are retold here after PMC9575645 (Signal Transduction and Targeted Therapy, 2022).

Data set [1] concerns Bovine coronavirus (KWD20). As to the kind of experiment: In vitro antiviral activity against BCoV in HRT-18G cells (CCIF viral yield). The data set is classed as cell-based. The conditions noted are these: for IC50: HRT-18G cells. How it is done:
Cells were grown in 6- or 12-well plates or 8-well chamber slides to the desired confluency and then washed twice with phosphate-buffered saline (PBS, pH 7.4). They were then mock-inoculated with medium only or virus-inoculated with various multiplicities of infection (MOI): MOI of 0.01 or 1 FFU/cell for IAV, and MOI of 0.01 or 0.1 FFU/cell for SARS-CoV-2, BCoV, PEDV, PRRSV, and PSaV. Thereafter, each inoculum was absorbed for 1 h, and the cells were washed twice with PBS (pH 7.4). As shown in Supplementary Table 4, further treatments and incubations varied dependent on the virus species used. Cells treated with PKA inhibitor H89 (5 μM or 50 μM concentration) or vehicle-treated immediately after absorption of IAV at an MOI of 1 FFU or SARS-CoV-2 at an MOI of 0.1 FFU were incubated for 24 and 36 h, respectively, and each cell lysate was used for the detection of HSL and pHSL by western blot analysis as described below. Cells treated with lipase inhibitors at the median incubation time of IAV or SARS-CoV-2 as described in the above condition were supplemented with LA, OA, or PA at 100 µM concentration and left incubation for further median incubation time. The cells were used to assess levels of intracellular TAGs, cholesterol, FFAs, glycerol, FAO, proinflammatory cytokines as well as viral genome copy numbers and virus titers as described below and in Supplementary Information.
To determine the antiviral effects of chemicals, serial 10-fold dilutions of each cell culture supernatant after three cycles of freezing and thawing cycles were prepared in appropriate medium supplemented with 100 U/mL penicillin and 100 μg/mL streptomycin as described above. To determine the viral infectivity titer in lung tissues from the hamsters challenged with or without SARS-CoV-2, or administered with or without inhibitors as described above, aseptically sampled lungs from five hamsters per group at day five post-virus infection were harvested. Cleared supernatants from lung tissue as produced from IAV-infected mice above were serially tenfold-diluted with virus growth medium. […] The cells were washed twice with PBS (pH 8.0), mounted with 60% glycerol, and observed byr inverted fluorescence microscopy. The number of cells showing a viral antigen-positive signal at the endpoint dilution were counted. IC50 was calculated using GraphPad Prism software version 8.4.2. […] CC50 data from the MTT assay and IC50 from the IF assay were both calculated using GraphPad Prism software version 8.4.2.

Another data set concerns Vero E6. As to the kind of experiment: Cytotoxicity, MTT assay, Vero E6. The format is cell-based, African green monkey. How it is done:
(§1) The cytotoxic effects of the chemicals and their solvents were tested by the MTT assay,[44] and its procedure is described in Supplementary Information.
(§2) The cytotoxic effects of the chemicals and their solvents used were tested by the MTT assay as described previously.^10 In brief, the chemicals were dissolved in DMSO to a stock concentration of 10 mM, and then freshly serially diluted in serum-free medium before being added to cell culture monolayers. The absorbance was measured using an enzyme-linked immunosorbent assay (ELISA) reader at an optical density (OD) of 570 nm. The percent cell viability was calculated using the following formula, [(ODsample˗ODblank)/(ODcontrol˗ODblank)] × 100%. According to the cell cytotoxicity data, dose-response curves were generated for the calculation of CC50 using GraphPad Prism software version 8.4.2.
A general note: Formazan colour is commonly taken as a measure of viable cells.

In another data set the test system is HRT18G. Briefly: Cytotoxicity, MTT assay, HRT18G. The data set is classed as cell-based, human. How it is done:
as §1, §2

Data set [2] has as its system LD lipolysis (FFA and glycerol release). As to the kind of experiment: Intracellular FFA and glycerol quantification in SARS-CoV-2-infected Vero E6 cells. The data set is classed as cell-based, African green monkey. As to conditions: SARS-CoV-2-infected cells; 20 µM at 18 hpi; vs vehicle-treated control. How it is done: Cells were grown in 6- or 12-well plates or 8-well chamber slides to the desired confluency and then washed twice with phosphate-buffered saline (PBS, pH 7.4). They were then mock-inoculated with medium only or virus-inoculated with various multiplicities of infection (MOI): MOI of 0.01 or 1 FFU/cell for IAV, and MOI of 0.01 or 0.1 FFU/cell for SARS-CoV-2, BCoV, PEDV, PRRSV, and PSaV. Thereafter, each inoculum was absorbed for 1 h, and the cells were washed twice with PBS (pH 7.4). As shown in Supplementary Table 4, further treatments and incubations varied dependent on the virus species used. […]
To determine intracellular levels of free fatty acids, the different cultured cells infected with or without the seven target RNA viruses, or treated with or without different concentrations of chemicals, and the lung samples from experimental mice and hamsters were prepared as described above. The amount of intracellular free fatty acid was determined using a quantification kit from BioVision according to the manufacturer’s recommendations.^31 Briefly, 5x10^6 cells or 100 mg of lung tissue were mixed with 500 μL of chloroform-Triton X-100 (1% Triton X-100 in pure chloroform) with vortexing at five-minute intervals for 20 min at 20°C. […]

Data set [3] concerns Porcine sapovirus (Cowden). As to conditions: for IC50: Porcine sapovirus (Cowden), LLC-PK cells.

On to `CN(C)C(=O)Nc1cccc(-c2ccc(N(C)C)cc2)c1` [Atglistatin], for which the “SI (CC50/IC50)” value in data set [1] is on record as 152; in data set [3] it was 72. Also, the IC50 in data set [1] came out at 1.2 ± 0.04 µM; in data set [3], 3.11 ± 0.39 µM. Further, the values for the CC50 with Vero E6 and in the data set on HRT18G were 226 ± 2.4 µM and 182 ± 2.6 µM, respectively. Further, the “levels of intracellular FFAs and glycerol” value in data set [2] is “significantly reduced”.

`COc1nn(-c2ccc(NC(=O)OCc3ccccc3)c(C)c2)c(=O)o1` [CAY10499]: the “SI (CC50/IC50)” value in data set [1] is 14; in data set [3], 9. In addition, the IC50 was 7.3 ± 0.52 µM in data set [1] and 11.8 ± 2.6 µM in data set [3]. In addition, the values for the CC50 in the data set with Vero E6 and with HRT18G were 102 ± 8.3 µM and 104 ± 9.1 µM, respectively. Besides, the “levels of intracellular FFAs and glycerol” value in data set [2] was “significantly reduced”.

What is called IC50 is the concentration that gives 50% inhibition. The CC50 is the concentration that lowers cell viability or growth by half. High values mean lower toxicity to the cells, low ones greater toxicity to the cells.
